Experimental data: US20260274861A1, “FUSED RING COMPOUND, PREPARATION METHOD THEREFOR AND MEDICINAL APPLICATION THEREOF” (JIANGSU HENGRUI PHARMACEUTICALS CO., LTD., priority 2022, published 2026)

Key:
AGS cells = experiment: Inhibition of 3D proliferation of AGS cells (CellTiter-Glo 3D); type: cell-based; conditions: Homo sapiens, 120 h, 5 days
Experimental: (§1) The inhibitory effects of the compounds of the present disclosure on the KRAS target were evaluated by assessing the inhibitory effects of the compounds of the present disclosure on the 3D proliferation of GP2d and AGS cells.
(§2) AGS cells were cultured in a complete culture medium, namely an RPM11640 medium (Hyclone, SH30809.01) containing 10% fetal bovine serum (Corning, 35-076-CV). On the first day of the experiment, the AGS cells were seeded into a 96-well low-adsorption plate (Corning, CLS7007-24EA) with a complete culture medium at a density of 1000 cells/well, with each well containing 90 μL of a cell suspension. The plate was centrifuged at 2000 rpm for 5 min at room temperature and then incubated overnight in a 37° C., 5% CO2 cell incubator.
(§3) The next day, the test compounds, serially diluted in a complete culture medium, were added at 10 μL/well. The final concentrations of the compounds for GP2d cells were 9 concentration points obtained by 5-fold serial dilution from 1 μM, and the final concentrations of the compounds for AGS cells were 9 concentration points obtained by 5-fold serial dilution from […]. A blank control containing 0.5% DMSO was set for both types of cells. The plates were incubated in a 37° C., 5% CO2 cell incubator for 5 days. On the seventh day, the 96-well cell culture plates were taken out, and 50 μL of the CellTiter-Glo® 3D Cell Viability Assay reagent (Promega, G^9682) was added to each well. The plates were shaken at room temperature in the dark for 25 min. The contents in the wells were pipetted for good uniformity, and 100 μL of the mixture was transferred from each well to a white impermeable 96-well plate (PerkinElmer, 6005290). The luminescence signal values were obtained using a multi-mode microplate reader (PerkinElmer, EnVision2105).

[1] = tested on: ERK phosphorylation in AGS cells; experiment: Inhibition of ERK phosphorylation in AGS cells (HTRF method); type: cell-based; conditions: Homo sapiens, 1 h incubation
Experimental: In the experiment, the inhibitory effects of the compounds of the present disclosure on the KRAS target were evaluated by assessing the inhibitory effects of the compounds on ERK phosphorylation in cells and based on IC50 values.
AGS cells were cultured in an RPMI1640 (Hyclone, SH30809.01) complete culture medium containing 10% fetal bovine serum. On the first day of the experiment, the AGS cells were seeded into a 96-well plate with a complete culture medium at a density of 40,000 cells/well, with each well containing 190 μL of a cell suspension. The plate was incubated overnight in a 37° C., 5% CO2 cell incubator.
The next day, the test compounds, serially diluted in a complete culture medium, were added at 10 μL/well. The final concentrations of the compounds were 9 concentration points obtained by 5-fold serial dilution from 10 μM. A blank control containing 0.5% DMSO was set. The plate was incubated in a 37° C., 5% CO2 cell incubator for 1 h. After the incubation, the 96-well cell culture plate was taken out, and the culture medium was removed using a pipette. The plate was washed once by adding 200 μL of PBS (Shanghai BasalMedia Technologies Co., Ltd., B320) to each well. The PBS was removed using a pipette, and 50 μL of a lysis buffer (Cisbio, 64KL1FDF) containing a blocking reagent (Cisbio, 64KB1AAC) was added to each well. The plate was shaken on a shaker at room temperature for 40 min for lysis. After lysis, the lysate was pipetted for good uniformity. […]
On the third day, the fluorescence values at an excitation wavelength of 337 nm and emission wavelengths of 665 nm and 620 nm were obtained using a multi-mode microplate reader (PerkinElmer, EnVision).
The ratio of the fluorescence signal at 665 nm to the fluorescence signal at 620 nm was calculated for phosphorylated ERK1/2 and total ERK1/2 for the compounds at various concentrations, and IC50 values for the inhibitory activity of the compounds were calculated using Graphpad Prism software based on the concentrations of the compounds and the phosphorylated ERK1/2 ratios corrected using the total ERK1/2 ratios.

GP2d cells = experiment: Inhibition of 3D proliferation of GP2d cells (CellTiter-Glo 3D); type: cell-based; conditions: 120 h, 5 days
Experimental: as §1
as §2, with “GP2d” for “AGS”, “a DMEM/high glucose culture” for “an RPM11640”, “SH30243.01)” for “SH30809.01)”
as §3

[2] = Pharmacokinetic evaluation in balb/c nude mice after intragastric administration; type: in vivo; conditions: female, mouse, po, i.g., 40.0 mg/kg, plasma; for Vd/F: read-out: Apparent distribution volume Vz/F; for AUC(0-t): read-out: Area under curve AUC0-t; for CL/F: read-out: Clearance rate CL/F; for half-life: read-out: Half-life T½ (converted); for Cmax: read-out: Plasma concentration Cmax
Experimental: Balb/c nude mice were used as test animals. After intragastric (i.g.) administration of example compounds to balb/c nude mice, the plasma concentrations at different time points were determined by the LC/MS/MS method. The pharmacokinetic behavior of the compounds of the present disclosure in balb/c nude mice was studied, and their pharmacokinetic profiles were evaluated.
Eighteen female balb/c nude mice, provided by Vital River Laboratory Animal Technology Co., Ltd. with production license SCXK (Zhejiang) 2019-0001, were evenly divided into 2 groups.
A certain amount of a test compound was weighed out, and 5% DMF+45% PG+50% (10% HS15-pH 7.4 buffer)+400 mpk SNAC was added to prepare a 4 mg/mL colorless clear solution.
The dose administered was 40.0 mg/kg, and the volume was 10 mL/kg.
0.1-mL blood samples were collected from the orbit before administration and 0.25 h, 0.5 h, 1.0 h, 2.0 h, 4.0 h, 6.0 h, 8.0 h, 11.0 h, and 24.0 h after administration. The blood samples were placed into EDTA-K2 anticoagulation test tubes and centrifuged at 10,000 rpm for 1 min (4° C.), and plasma was separated within 1 h and stored at −20° C. before analysis. The procedure starting from the blood collection to the centrifugation was performed under ice-bath conditions.
After administration of different concentrations of the test compounds, the plasma concentration of the test compounds in balb/c nude mice was determined: A 25-μL sample of the balb/c nude mouse plasma of each time point after administration was taken, and 200 μL of acetonitrile containing an internal standard (for compound 37, the internal standard was 100 ng/mL verapamil; for compound 39, the internal standard was 100 ng/mL diclofenac) was added. The mixture was vortexed for 5 min and centrifuged at 3700 rpm for 20 min, and the supernatant was mixed with water (1:1). 0.5-2 μL of the supernatant was taken and analyzed by LC/MS/MS. 4. Pharmacokinetic parameters

AsPC-1 cells = experiment: Inhibition of 3D proliferation of AsPC-1 cells (CellTiter-Glo 3D); type: cell-based; conditions: Homo sapiens, ASPC1, 120 h, 5 days
Experimental: On the first day of the experiment, well-grown AsPC-1 cells with 70%-80% confluency were digested and resuspended in an RPMI 1640 culture medium (Hyclone, SH30809.01) containing 10% FBS, and the cell density was adjusted to the desired level. The cell suspension was added to a U-shaped low-adsorption 96-well plate (Corning, CLS7007-24EA) at 90 μL/well, with a cell density of 1500 cells/well. The cell plate was centrifuged at 2500 rpm for 5 min and then incubated overnight in a 37° C., 5% CO2 incubator. The next day, 20 mM test compounds dissolved in DMSO were diluted to an initial concentration of 2 mM and then serially diluted 5-fold, and a total of 9 concentration points were obtained. Control wells were set using DMSO. The serially diluted compounds were then further diluted 20-fold with a culture medium. The test compounds, diluted with the culture medium, were added to the cell plate at 10 μL/well, with the final concentrations of the compounds being 9 concentration points obtained by 5-fold serial dilution from an initial concentration of 10 μM. Cell wells containing 0.5% DMSO were set as vehicle control wells, and wells containing only the culture medium and 0.5% DMSO were set as blank control wells. A duplicate well was set for each concentration of the compounds and the control wells, with the final concentration of DMSO in each well being 0.5%. The cell plate was centrifuged at 2500 rpm for 3 min and then incubated in a 37° C., 5% CO2 incubator for 5 days. On the seventh day, the 96-well cell culture plate was taken out, and 50 μL of the CellTiter-Glo® Luminescent 3D Cell Viability Assay reagent (Promega, G^9683) was added to each well. The plates were shaken at room temperature in the dark for 25 min. The contents in the wells were pipetted up and down for good uniformity, and then 100 μL of the mixture was transferred from each well to a white impermeable OptiPlate™-96-well plate (PerkinElmer, 6005290). The luminescence signal values were obtained using a multi-mode microplate reader (PerkinElmer, EnVision2105).
The inhibition rate was calculated using the formula: inhibition rate=(luminescence valuevehicle control well−luminescence valuetest compound)/(luminescence valuevehicle control well−luminescence valueblank control well)×100%. Curves were plotted using GraphPad Prism software based on the various concentrations of the compounds and the corresponding inhibition rates, and IC50 values for the compounds were calculated.

SMILES	IC50 (AGS cells) [nM]	IC50 [1] [nM]	IC50 (GP2d cells) [nM]	Vd/F [2] [L/kg]	AUC(0-t) [2] [ng·h/mL]	CL/F [2] [mL/min/kg]	half-life [2] [h]	Cmax [2] [ng/mL]	IC50 (AsPC-1 cells) [nM]
CCc1c(F)ccc2cc(O)cc(-c3nc4c5c(nc(OCC6(CN7CCOCC7)CC6)nc5c3F)N3C[C@H]5CC[C@H](N5)[C@H]3CO4)c12 [Example 1, 5-Ethyl-6-fluoro-4-((5aS,6S,9R)-1-fluoro-12-((1-(morpholinomethyl)cyclopropyl)methoxy)-5a,6,7,8,9,10-hexahydro-5H-4-oxa-3,10a,11,13,14-pentaaza-6,9-methanonaphtho[1,8-ab]heptalen-2-yl)naphthalen-2-ol]	16.7	0.96	5.2	–	–	–	–	–	–
CCc1c(F)ccc2cc(O)cc(-c3nc4c5c(nc(OCC6(CN7C[C@@H]8C[C@H]7CO8)CC6)nc5c3F)N3C[C@H]5CC[C@H](N5)[C@H]3CO4)c12 [Example 2, 4-((5aS,6S,9R)-12-((1-(((15,4S)-2-Oxa-5-azabicyclo[2.2.1]heptan-5-yl)methyl)cyclopropyl)methoxy)-1-fluoro-5a,6,7,8,9,10-hexahydro-5H-4-oxa-3,10a,11,13,14-pentaaza-6,9-methanonaphtho[1,8-ab]heptalen-2-yl)-5-ethyl-6-fluoronaphthalen-2-ol]	–	1.5	–	–	–	–	–	–	–
CCc1c(F)ccc2cc(O)cc(-c3nc4c5c(nc(OCC6(CN7C[C@H]8C[C@@H]7CO8)CC6)nc5c3F)N3C[C@H]5CC[C@H](N5)[C@H]3CO4)c12 [Example 3, 4-((5aS,6S,9R)-12-((1-(((1R,4R)-2-Oxa-5-azabicyclo[2.2.1]heptan-5-yl)methyl)cyclopropyl)methoxy)-1-fluoro-5a,6,7,8,9,10-hexahydro-5H-4-oxa-3,10a,11,13,14-pentaaza-6,9-methanonaphtho[1,8-ab]heptalen-2-yl)-5-ethyl-6-fluoronaphthalen-2-ol]	–	1.2	–	–	–	–	–	–	–
C[C@@H]1Oc2nc(-c3ccc(F)c4sc(N)c(C#N)c34)c(F)c3nc(OCC4(CN5CCC(=CF)CC5)CC4)nc(c23)N2C[C@H]3CC[C@H](N3)[C@@H]12 [Example 37, 2-Amino-7-fluoro-4-((5S,5aS,6S,9R)-1-fluoro-12-((1-((4-(fluoromethylene)piperidin-1-yl)methyl)cyclopropyl)methoxy)-5-methyl-5a,6,7,8,9,10-hexahydro-5H-4-oxa-3,10a,11,13,14-pentaaza-6,9-methanonaphtho[1,8-ab]heptalen-2-yl)benzo[b]thiophene-3-carbonitrile]	4.7	–	0.4	78	5260	113	7.95	699	2.4
C[C@@H]1Oc2nc(-c3cc(N)cc(Cl)c3C(F)(F)F)c(F)c3nc(OCC4(CN5CCC(=C(F)F)CC5)CC4)nc(c23)N2C[C@H]3CC[C@H](N3)[C@@H]12 [Example 39, 3-Chloro-5-((5S,5aS,6S,9R)-12-((1-((4-(difluoromethylene)piperidin-1-yl)methyl)cyclopropyl)methoxy)-1-fluoro-5-methyl-5a,6,7,8,9,10-hexahydro-5H-4-oxa-3,10a,11,13,14-pentaaza-6,9-methanonaphtho[1,8-ab]heptalen-2-yl)-4-(trifluoromethyl)aniline]	6.7	–	0.17	64.2	7210	73.7	10.1	578	2.6
